Drawing on PMC9496282, “Analysis of Phosphatase Activity in a Droplet-Based Microfluidic Chip” (Biosensors, 2022), this text covers IC50 for 1 compound.

The target of this experiment is T1, dual specificity phosphatase 22 (DUSP22) (Homo sapiens, UniProt Q9NRW4).
T1 construct: recombinant DUSP22 from pET-28a(+)-DUSP22, purified from E. coli BL21(DE3)
T1 sequence (Q9NRW4 2-184): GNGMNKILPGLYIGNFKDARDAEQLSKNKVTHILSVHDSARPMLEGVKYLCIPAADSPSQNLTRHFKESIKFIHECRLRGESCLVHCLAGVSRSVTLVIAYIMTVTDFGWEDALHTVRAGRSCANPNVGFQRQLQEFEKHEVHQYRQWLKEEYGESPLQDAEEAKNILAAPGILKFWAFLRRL
The experiment in a line: fluorescent 3-OMFP phosphatase inhibition assay in droplet microfluidic chip (microwell plate IC50 […]). In kind it is biochemical.

By IC50 is commonly meant the concentration that inhibits the measured activity by half. Read a high IC50 as a need for much substance.

With `CCN(N=O)c1ccc(O)c(O)c1` [ethyl-3,4-dephostatin], the IC50 came out at 5.79 ± 1.09 µM.
